# Reference: patent US20150224089A1, “COMBINATIONS OF IKKi/TBK1 INHIBITORS WITH BETA ADRENERGIC AGONISTS OR SYMPATHETIC NERVOUS SYSTEM ACTIVATORS” (THE REGENTS OF THE UNIVERSITY OF MICHIGAN, priority 2014, published 2015)
# Assays:
# [1] = test system: 3T3-L1 adipocytes; experiment: cAMP levels in 3T3-L1 adipocytes; format: cell-based
# Experimental: (§1) (A) Glycerol release from 3T3-L1 adipocytes treated with or without different concentrations of TNFα as indicated for 24 hr followed by treatment with or without 10 μM ISO or 50 μM FSK. (B) cAMP levels from 3T3-L1 adipocytes treated with or without 100 ng/ml TNFα for 24 hr followed by treatment with or without 10 μM ISO or 50 μM FSK in the presence or absence of pretreatment of 50 μM Amlexanox (Am). (C) cAMP levels from 3T3-L1 adipocytes treated with or without 100 ng/ml TNFα for 24 hr followed by treatment with or without 50 μM FSK in the presence or absence of pretreatment of 1 μM CAY10576 (CAY). (D) Immunoblots of whole cell lysates from 3T3-L1 adipocytes treated with or without different concentrations of TNFα as same as FIG. 2A for 24 hr followed by treatment with or without 10 μM ISO or 50 μM FSK. Results were replicated in multiple experiments. ‘[’ indicates total HSL. ‘n.s.’ represents non-specific band. Arrow indicates CGI-58. (E) Immunoblots of whole cell lysates from 3T3-L1 adipocytes treated with or without 50 ng/ml TNFα or 100 μg/ml poly (I:C) for 24 hr followed by treatment with or without 10 μM ISO for 15 min in the presence or absence of pretreatment with increasing concentrations (0, 10, 50, and 200 μM) of amlexanox for 30 min.
# (A) cAMP levels from 3T3-L1 adipocytes expressing empty vector, Flag-IKKε, or Flag-TBK1 treated with or without 50 μM FSK, 250 μM IBMX, or together for 15 min. (B) cAMP levels from 3T3-L1 adipocytes expressing empty vector, Flag-IKKε, or Flag-TBK1 treated with or without 10 μM ISO or 50 μM FSK together with or without 10 μM Zardaverine (Zarda) for 15 min. (C) 32P phospho-image of in vitro kinase reaction using either immunoprecipitated HA-PDE3B from HEK293T cells or 1 μg MBP (myelin basic protein) as a substrate with recombinant kinases as indicated. (D) Immunoblots of immunoprecipitation with anti-HA antibodies followed by treatment with or without CIP (top panel) and whole cell lysates (bottom panel) from Cos-1 cells co-expressing HA-PDE3B with Flag-IKKε/TBK1 or Flag-IKKε/TBK1 K38A. D.E. stands for dark exposure and L.E. stands for light exposure. (E) Immunoblots of GST-14-3-3 pulldown from HEK293T cells co-expressing HA-PDE3B with Flag-TBK1 or Flag-TBK1 K38A.
# Obesity is accompanied by infiltration of proinflammatory macrophages into adipose tissue; these cells secrete inflammatory cytokines, such as TNFα, which generate insulin resistance by stimulating catabolic pathways (Hotamisligil, 2006; Lumeng et al., 2007; Ye and Keller, 2010; Ouchi et al., 2011; herein incorporated by reference in their entireties). Although TNFα is known to increase lipolysis in adipocytes (Zhang et al., 2002; Souza et al., 2003; Green et al., 2004; Plomgaard et al., 2008; herein incorporated by reference in their entireties), there is also evidence of a counterinflammatory response in obesity that may serve to repress energy expenditure (Gregor and Hotamisligil, 2011; Saltiel, 2012; Calay and Hotamisligil, 2013; Reilly et al., 2013; herein incorporated by reference in their entireties). Experiments were conducted during development of embodiments of the present invention using TNFα to model the inflammatory milieu of obese adipose tissue in cell culture to determine whether the cytokine might also regulate β-adrenergic signaling in this context. While short-term treatment with TNFα augmented the increase in cAMP produced by forskolin treatment, this effect declined after 12 hr. […] Thus, the catabolic effects of the proinflammatory cytokine TNFα in adipocytes are transient and followed by an inhibitory phase.
# Treatment of 3T3-L1 adipocytes with TNFα for 24 hr induced the expression of IKKε and increased TBK1 phosphorylation at the active site in a manner that was dependent on the activity of IKKβ and the NFκB pathway (Reilly et al., 2013; herein incorporated by reference in its entirety). […]
# [2] = test system: diet-induced obese mice; experiment: Serum FFA and glycerol after CL-316,243 injection in ND- or HFD-fed mice; format: in vivo; details: normal diet mice, vehicle and amlexanox-treated; 15 min after IP CL-316,243 injection
# Experimental: (A) Fold increase in serum FFA (left panel) and glycerol (right panel) levels 15 min after CL-316,243 injection in ND- or HFD-fed mice treated with amlexanox or vehicle control for 4 days. (B) Glycerol release from ex vivo epididymal (left panel) and inguinal (right panel) WATs after 1 hr pretreatment with amlexanox or vehicle. CL-316,243 treatment was started at time zero. (C) Immunoblots in inguinal WAT lysates from FIG. 5B after 60 min of CL-316,243 treatment. (D) cAMP levels in epididymal WAT 20 min after CL-316,243 (CL) or saline control injection in HFD-fed mice treated with amlexanox or vehicle control for 4 days. (E) Immunoblots in epididymal WAT 5 min after CL-316,243 or saline control injection in HFD-fed mice treated with amlexanox or vehicle control for 4 days. (F) Relative oxygen comsumption of mice in each treatment group.
# To test the functional importance of the noncanonical IKKs in maintaining energy balance in vivo, experiments were conducted during development of embodiments of the present invention to investigate whether the administration of a selective inhibitor of IKKε and TBK1, amlexanox, can reverse diet-induced catecholamine resistance in rodentsMice were fed a high fat or normal diet, treated them with amlexanox by oral gavage for 4 days (prior to the point when weight loss is seen), and then gave a single intraperitoneal (IP) injection of the β3-adrenergic agonist CL-316,243. Injection of CL-316,243 stimulated a threefold increase in serum FFA and glycerol levels in both vehicle and amlexanox-treated mice on normal diet (ND).
# [3] = test system: 3T3-L1 adipocytes; experiment: Glycerol release (lipolysis) from 3T3-L1 adipocytes; format: cell-based; details: for lipolysis (glycerol release): empty vector-expressing cells, 10 μM
# Experimental: (§2) (A) Fold increase in Ucp1 expression in 3T3-L1 adipocytes expressing empty vector, Flag-IKKε, or Flag-IKKε K38A following treatment with or without 10 μM ISO (black bars) or 10 μM CL-316,243 (CL, gray bars) for 4 hr. (B) Glycerol release from 3T3-L1 adipocytes expressing empty vector (white bars), Flag-IKKε (black bars), or Flag-IKKε K38A (gray bars) treated with or without 10 μM ISO or 10 μM CL. (C) Immunoblots of whole cell lysates from FIG. 1B. Results were replicated in triplicate. D.E. stands for dark exposure and L.E. stands for light exposure. (D) Immunoblots of whole cell lysates from 3T3-L1 adipocytes expressing empty vector or Flag-IKKε treated with or without 50 μM FSK for 15 min. (E) cAMP levels from 3T3-L1 adipocytes expressing empty vector, Flag-IKKε, or Flag-IKKε K38A treated with or without 10 μM ISO or 50 μM FSK for 15 min.
# as §1
# The obesity-dependent increase was modeled in the noncanonical IKKs by overexpressing IKKε in 3T3-L1 adipocytes, followed by assay of glycerol release in response to ISO or CL-316,243. […] Overexpression of TBK1 reduced phosphorylation of HSL in response to isoproterenol or the adenylyl cyclase activator, forskolin (FIG. 1). Identical results were obtained when IKKε was overexpressed in 3T3-L1 adipocytes stimulated with forskolin (FIG. 1D), as detected by western blotting with an anti-phospho-PKA substrate motif antibody. […]
# [4] = test system: 3T3-L1 adipocytes; experiment: Ucp1 gene expression in 3T3-L1 adipocytes; format: cell-based; details: empty vector-expressing cells; 10 μM for 4 hr; treated relative to control samples
# Experimental: as §2
# Sympathetic activation of adipose tissue is involved in maintaining energy balance by stimulating lipolysis and fat oxidation (Coppack et al., 1994; Langin, 2006; Festuccia et al., 2011; herein incorporated by reference in their entireties). Activation of β-adrenergic signaling by either β-adrenergic agonists or cold exposure in white and brown adipose tissue initiates a cascade of events through cyclic AMP (cAMP), culminating in the transcriptional upregulation of Ucp1, which results in increased proton leak and energy expenditure (Himms-Hagen et al., 2000; Cao et al., 2004; Yehuda-Shnaidman et al., 2010; herein incorporated by reference in their entireties). […] This effect was further analyzed by overexpressing IKKε in 3T3-L1 adipocytes and examining Ucp1 gene expression after treatment with the non-selective β-adrenergic agonist, isoproterenol (ISO), or the β3-adrenergic agonist, CL-316,243. Fold difference in Ucp1 gene expression was calculated by normalization of relative Ucp1 mRNA levels in treated relative to control samples. […] The induction of Ucp1 gene expression in response to ISO or CL-316,243 was blunted when WT IKKε was overexpressed in these cells. […]
# [5] = test system: 3T3-L1 adipocytes; experiment: Immunoblots of β-adrenergic/PKA signaling (HSL, perilipin, PKA substrate, p38 phosphorylation) in 3T3-L1 adipocytes; format: cell-based; details: treatment with Poly (I:C)
# Experimental: as §1, with “Results were replicated in multiple experiments. ‘[’ indicates total HSL. ‘n.s.’ represents non-specific band.” left out
# Experiments were conducted during development of embodiments of the present invention to determine whether the repression of β-adrenergic sensitivity produced by longer-term treatment with TNFα is due to increased activity of the noncanonical IKKs.
compound,measurement,setting,value
COc1cc2ncn(-c3cc(OCc4ccccc4S(C)(=O)=O)c(C#N)s3)c2cc1OC [CAY10576],rescue of TNFα-decreased forskolin-stimulated cAMP production,"[1]; preincubation with 1 μM CAY10576, 100 ng/ml TNFα 24 hr, 50 μM FSK",largely rescued
"C[C@H](Cc1ccc2c(c1)OC(C(=O)[O-])(C(=O)[O-])O2)NC[C@H](O)c1cccc(Cl)c1.[Na+].[Na+] [CL-316,243]",increase in serum FFA levels,[2],threefold
same,increase in serum glycerol levels,[2],threefold
same,lipolysis (glycerol release),[3],increased lipolysis
same,increase in Ucp1 mRNA levels,[4],twofold
CC(C)Cn1c(=O)n(C)c(=O)c2[nH]cnc21 [IBMX],cAMP production in response to forskolin in adipocytes expressing IKKε or TBK1,"[1]; 250 μM IBMX, 50 μM FSK, 15 min",rescued the full stimulation of cAMP production
CC(C)NCC(O)c1ccc(O)c(O)c1 (centres unmarked) [isoproterenol],lipolysis (glycerol release),[3],increased lipolysis
same,increase in Ucp1 mRNA levels,[4],1.6 fold
Poly (I:C),stimulation of phosphorylation in response to β-adrenergic stimulation,[5],reduced
same,stimulation of lipolysis in response to β-adrenergic stimulation,[3]; treatment with Poly (I:C),reduced
same,stimulation of cAMP production in response to β-adrenergic stimulation,[1]; treatment with Poly (I:C),reduced
